Reference: patent US6737383B1, “Herbicidal oxadiazolidines” (priority 1999, dated 2004)

Assays:
pigweed = test: Test B pre/postemergence pigweed; assay type: in vivo, Amaranthus retroflexus
Outline: (§1)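 Test chemicals in a non-phytotoxic solvent mixture with surfactant were sprayed preemergence onto planted seeds and postemergence onto plants 2 to 18 cm tall (1- to 4-leaf stage). After twelve to sixteen days in a greenhouse, injury was visually rated against untreated controls from 0 (no effect) to 10 (complete control).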

rape = test: Test B pre/postemergence rape; assay type: in vivo, Brassica napus
Outline: as §1

sugar beet = test: Test B pre/postemergence sugar beet; assay type: in vivo, Beta vulgaris
Outline: as §1

winter wheat [1] = test: Test E winter wheat; assay type: in vivo, Triticum aestivum; conditions: Postemergence; for Plant response rating, Wheat (winter): 0 to 100 scale
Outline: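 Plants were grown under normal greenhouse practice; for postemergence, in sandy loam soil mixed 60:40 with potting mix, treated at the 1- to 4-leaf stage. The compound was in a non-phytotoxic solvent carrying a surfactant. After roughly 21 to 28 days plants were scored visually against untreated plants.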

blackgrass = test: Test E blackgrass; assay type: in vivo, Alopecurus myosuroides; conditions: Preemergence; for Plant response rating, Blackgrass: 0 to 100 scale where 0 is no effect and 100 is complete control
green foxtail = test: Test E green foxtail; assay type: in vivo, Setaria viridis; conditions: Preemergence; for Plant response rating, Green foxtail: 0 to 100 scale where 0 is no effect and 100 is complete control
Italian ryegrass = test: Test E Italian ryegrass; assay type: in vivo, Lolium multiflorum; conditions: Preemergence; for Plant response rating, I. Ryegrass: 0 to 100 scale where 0 is no effect and 100 is complete control
winter wheat [2] = test: Test E winter wheat; assay type: in vivo, Triticum aestivum; conditions: Preemergence; for Plant response rating, Wheat (winter): 0 to 100 scale where 0 is no effect and 100 is complete control
wild oat = test: Test E wild oat; assay type: in vivo, Avena fatua; conditions: Preemergence; for Plant response rating, Wild oat: 0 to 100 scale where 0 is no effect and 100 is complete control
winter barley = test: Test E winter barley; assay type: in vivo, Hordeum vulgare; conditions: Preemergence; for Plant response rating, Barley (winter): 0 to 100 scale where 0 is no effect and 100 is complete control
[3] = Postemergence, Rate 125 g/ha, scale of 0 to 10 where 0 is no effect and 10 is complete control
[4] = Preemergence, Rate 62 g/ha, scale of 0 to 10 where 0 is no effect and 10 is complete control
[5] = Preemergence, Rate 125 g/ha, 0 is no effect, 10 is complete control
[6] = Preemergence, Rate 250 g/ha, scale 0 to 10, 0 is no effect, 10 is complete control
[7] = Preemergence, Rate 500 g/ha, scale 0 to 10 (0 no effect, 10 complete control)
[8] = Rate 62 g/ha, Postemergence, scale of 0 to 10 where 0 is no effect and 10 is complete control
[9] = Rate 250 g/ha, Postemergence, scale 0 to 10, 0 is no effect, 10 is complete control
[10] = Rate 500 g/ha, Postemergence, scale 0 to 10

## CC(C)Cn1c(=O)on(C(=O)N(c2ccc(F)cc2)C(C)C)c1=O [Compound 169]
pigweed; [3]
  Redroot pigweed plant response rating: 0
pigweed; [4]
  Redroot pigweed plant response rating: 6
pigweed; [5]
  Redroot pigweed plant response rating (0 to 10 scale): 6
pigweed; [6]
  Redroot pigweed plant response rating: 8
pigweed; [7]
  Redroot pigweed plant response rating: 8
pigweed; [8]
  Redroot pigweed plant response rating: 0
pigweed; [9]
  Plant response rating, Redroot pigweed: 0
pigweed; [10]
  Redroot pigweed plant response rating: 3
rape; [3]
  Rape plant response rating: 0
rape; [4]
  Rape plant response rating: 2
rape; [5]
  Rape plant response rating (0 to 10 scale): 2
rape; [6]
  Rape plant response rating: 6
rape; [7]
  Rape plant response rating: 10
rape; [8]
  Rape plant response rating: 0
rape; [9]
  Plant response rating, Rape: 0
rape; [10]
  Rape plant response rating: 3
Sugar beet; [3]
  Sugarbeets plant response rating: 0
Sugar beet; [4]
  Sugarbeets plant response rating: 0
Sugar beet; [5]
  Sugarbeets plant response rating (0 to 10 scale): 0
Sugar beet; [6]
  Sugarbeets plant response rating: 7
Sugar beet; [7]
  Sugarbeets plant response rating: 8
Sugar beet; [8]
  Sugarbeets plant response rating: 0
Sugar beet; [9]
  Plant response rating, Sugarbeets: 0
Sugar beet; [10]
  Sugarbeets plant response rating: 0
Winter wheat [1]; Rate 1000 g/ha, 0 is no effect and 100 is complete control
  Plant response rating, Wheat (winter): 65
Winter wheat [1]; Rate 250 g/ha, 0 to 100 scale where 0 is no effect and 100 is complete control
  Wheat (winter) plant response rating: 40
Winter wheat [1]; Rate 500 g/ha, 0 is no effect, 100 is complete control
  Plant response rating, Wheat (winter): 50
blackgrass; Rate 250 g/ha
  Blackgrass plant response rating (0 to 100 scale): 30
blackgrass; Rate 500 g/ha
  Plant response rating, Blackgrass: 60
blackgrass; Rate 1000 g/ha
  Plant response rating, Blackgrass: 55
Green foxtail; Rate 250 g/ha
  Green foxtail plant response rating (0 to 100 scale): 60
Green foxtail; Rate 500 g/ha
  Plant response rating, Green foxtail: 70
Green foxtail; Rate 1000 g/ha
  Plant response rating, Green foxtail: 95
Italian ryegrass; Rate 250 g/ha
  I. Ryegrass plant response rating (0 to 100 scale): 75
Italian ryegrass; Rate 500 g/ha
  Plant response rating, I. Ryegrass: 80
Italian ryegrass; Rate 1000 g/ha
  Plant response rating, I. Ryegrass: 90
Winter wheat [2]; Rate 250 g/ha
  Wheat (winter) plant response rating (0 to 100 scale): 10
Winter wheat [2]; Rate 500 g/ha
  Plant response rating, Wheat (winter): 40
Winter wheat [2]; Rate 1000 g/ha
  Plant response rating, Wheat (winter): 65
Wild oat; Rate 250 g/ha
  Wild oat plant response rating (0 to 100 scale): 50
Wild oat; Rate 500 g/ha
  Plant response rating, Wild oat: 30
Wild oat; Rate 1000 g/ha
  Plant response rating, Wild oat: 40
Winter barley; Rate 250 g/ha
  Barley (winter) plant response rating (0 to 100 scale): 30
Winter barley; Rate 500 g/ha
  Plant response rating, Barley (winter): 30
Winter barley; Rate 1000 g/ha
  Plant response rating, Barley (winter): 50
